Test system: Iex-1
Assay: Iex-1 gene expression by qRT-PCR in hypoxic NIH 3T3 fibroblasts
Format: cell-based, mouse
Excerpt: To determine the expression of Iex-1 and Vegf-A in vitro, NIH 3T3 cells (ATCC, Manassas, Va.) were used and subjected to hypoxia and normoxia for different lengths of time as described elsewhere (Yang et al., Kidney Int., 85:289-306 (2014) and Janardhanan et al., Kidney Int., 84:338-52 (2013)). Cells were harvested for qRT-PCR analysis.
Cells or tissue were stored in a RNA stabilizing/cell lysis solution (Qiagen, Gaithersburg, Md.) (Yang et al., Kidney Int., 85:289-306 (2014) and Janardhanan et al., Kidney Int., 84:338-52 (2013)). Specimens were homogenized, and total RNA was extracted and isolated via the miRNEasy Mini kit (Qiagen). Culture cells were trypsinized and stored in Qiazol lysis regent and processed using the RNEasy Mini kit.
Gene expression was quantified using qRT-PCR as described elsewhere (Yang et al., Kidney Int., 85:289-306 (2014) and Janardhanan et al., Kidney Int., 84:338-52 (2013)).

With C=C1/C(=C\C=C2/CCC[C@]3(C)[C@@H]([C@H](C)CCCC(C)(C)O)CC[C@@H]23)C[C@@H](O)C[C@@H]1O [calcitriol] the “average decrease in Iex-1 expression vs. controls” value (1 μM calcitriol, hypoxic fibroblasts, 24 hours, control PBS alone) was 56%, the “average Iex-1 expression (qRT-PCR)” value (1 μM calcitriol, hypoxic fibroblasts, 24 hours, control 8.62+1.52) was 3.84+2.2 and the “optimal dose of calcitriol required to reduce Iex-1 expression” value (determined using a dose response curve) was 1 µM.

Reference: patent US10098897B2, “Methods and materials for reducing development of stenosis of arteriovenous fistulas” (Mayo Foundation for Medical Education and Research, priority 2014, dated 2018)
